Our source for the T/C values is PubChem BioAssay AID330 (DTP/NCI, 2004).

The structures appear in SMILES notation. Where “and” joins values, the source holds several entries; their conditions need not be identical. Equal entries are not always repeated. Toxic doses and inconclusive results are not listed.

The test system of this assay is P388 leukemia ip, CD2F1 mice, survival T/C. Description: NCI In Vivo Anticancer Drug Screen. Data for tumor model P388 Leukemia (intraperitoneal) in CD2F1 (CDF1) mice. The following applies: endpoint: median survival time, higher = longer survival. An outline of the steps: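 Mice carrying the transplanted tumor received test compound or vehicle. Survival was recorded in each group, and the value is the treated-group measurement divided by that of the vehicle-treated control group.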

The mark [1] stands for this setting: dose: 50.0 mg/kg/injection, schedule: Q01DX009 (ip), vehicle: saline with Tween-80.
Where [2] appears, read: dose: 100.0 mg/kg/injection, schedule: Q01DX009 (ip), vehicle: saline with Tween-80.
[3] abbreviates: dose: 200.0 mg/kg/injection, schedule: Q01DX009 (ip), vehicle: saline with Tween-80.
Setting [4] is: dose: 50.0 mg/kg/injection, schedule: Q01DX009 (ip), vehicle: suspension in saline.
Where [5] appears, read: dose: 100.0 mg/kg/injection, schedule: Q01DX009 (ip), vehicle: suspension in saline.
Setting [6] is: dose: 200.0 mg/kg/injection, schedule: Q01DX009 (ip), vehicle: suspension in saline.

For `CCOP(=O)(OCC)c1nc(Cl)nc(Cl)c1SC(F)(F)F`, the T/C (dose: 3.75 mg/kg/injection, schedule: Q01DX005 (ip), vehicle: saline with Tween-80) is 113 % of control; the T/C (dose: 7.5 mg/kg/injection, schedule: Q01DX005 (ip), vehicle: saline with Tween-80) was 104 % of control; the T/C (dose: 15.0 mg/kg/injection, schedule: Q01DX005 (ip), vehicle: saline with Tween-80) was 100 % of control.

On to `Cc1nc2c(N)nn(C)c2nc1C`, for which the T/C was 105 % of control under setting [1], 110 % of control under setting [2] and 110 % of control under setting [3].

Regarding `O=C(O)C1CC(c2ccccc2)=NN1c1ccccc1` (stereo unspecified), the T/C (dose: 12.5 mg/kg/injection, schedule: Q01DX009 (ip), vehicle: water) is 99 % of control; the T/C (dose: 25.0 mg/kg/injection, schedule: Q01DX009 (ip), vehicle: water) is 98 % of control; the T/C (dose: 50.0 mg/kg/injection, schedule: Q01DX009 (ip), vehicle: water) is 103 % of control; the T/C (dose: 88.0 mg/kg/injection, schedule: Q01DX009 (ip), vehicle: water) was 112 % of control and 120 % of control; the T/C (dose: 100.0 mg/kg/injection, schedule: Q01DX009 (ip), vehicle: water) was 109 % of control; the T/C (dose: 133.0 mg/kg/injection, schedule: Q01DX009 (ip), vehicle: water) was 119 % of control and 124 % of control. For the same compound, the T/C runs as follows: (dose: 200.0 mg/kg/injection, schedule: Q01DX009 (ip), vehicle: water) 123 % of control; (dose: 300.0 mg/kg/injection, schedule: Q01DX009 (ip), vehicle: water) 122 % of control.

Turning to `COC1C=C(C)C(=O)O1` (stereo unspecified), the T/C is 106 % of control (dose: 50.0 mg/kg/injection, schedule: Q01DX005 (ip), vehicle: saline); 101 % of control (dose: 100.0 mg/kg/injection, schedule: Q01DX005 (ip), vehicle: saline); 101 % of control (dose: 200.0 mg/kg/injection, schedule: Q01DX005 (ip), vehicle: saline).

Consider `CCN(CC)CCO/N=C1\CC(c2ccc(OC)c(OC)c2)Oc2ccccc21` (stereo unspecified), for which the T/C is 100 % of control (dose: 15.0 mg/kg/injection, schedule: Q01DX005 (ip), vehicle: saline); 114 % of control (dose: 30.0 mg/kg/injection, schedule: Q01DX005 (ip), vehicle: saline); 100 % of control and 105 % of control (dose: 60.0 mg/kg/injection, schedule: Q01DX005 (ip), vehicle: saline).

Take `CN(C)P1(=O)OCC(C(C)(C)C)CN1C` (stereo unspecified): the T/C is, setting by setting: (dose: 50.0 mg/kg/injection, schedule: Q01DX009 (ip), vehicle: Klucel (hydroxypropylcellulose) (HPC)) 100 % of control; (dose: 100.0 mg/kg/injection, schedule: Q01DX009 (ip), vehicle: Klucel (hydroxypropylcellulose) (HPC)) 107 % of control.

As for `O=C(Nc1ccc(-c2cn3ccccc3n2)cc1)c1ccccc1O`, the T/C runs as follows: under setting [1], 88 % of control; under setting [2], 87 % of control; under setting [3], 101 % of control.

As for `O=C(Oc1ccccc1)c1cc2ccccc2cc1O`, the T/C (dose: 6.25 mg/kg/injection, schedule: Q01DX009 (ip), vehicle: saline) was 100 % of control; the T/C (dose: 12.5 mg/kg/injection, schedule: Q01DX009 (ip), vehicle: saline) is 103 % of control; the T/C (dose: 25.0 mg/kg/injection, schedule: Q01DX009 (ip), vehicle: saline) was 100 % of control.

In the case of `Cc1ccc(-c2ccc(Nc3c4ccccc4nc4ccccc34)cc2)cn1`, the T/C was 106 % of control (dose: 25.0 mg/kg/injection, schedule: Q01DX005 (ip), vehicle: distilled water + Tween-80); 117 % of control (dose: 50.0 mg/kg/injection, schedule: Q01DX005 (ip), vehicle: distilled water + Tween-80); 151 % of control (dose: 100.0 mg/kg/injection, schedule: Q01DX005 (ip), vehicle: distilled water + Tween-80); 193 % of control (dose: 200.0 mg/kg/injection, schedule: Q01DX005 (ip), vehicle: distilled water + Tween-80).

Regarding `CC(C)CCCCCCCCCCCCC(=O)NCCC(=O)NC1C(CO)OC(Nc2ncnc3nc[nH]c23)C(O)C1O` (stereo unspecified), the T/C is, setting by setting: (dose: 0.39 mg/kg/injection, schedule: Q01DX009 (ip), vehicle: other) 107 % of control; (dose: 0.78 mg/kg/injection, schedule: Q01DX009 (ip), vehicle: other) 102 % of control; (dose: 1.56 mg/kg/injection, schedule: Q01DX009 (ip), vehicle: other) 156 % of control; (dose: 6.25 mg/kg/injection, schedule: Q01DX009 (ip), vehicle: other) 112 % of control and 96 % of control; (dose: 12.5 mg/kg/injection, schedule: Q01DX009 (ip), vehicle: other) 93 % of control.

In the case of `CSc1ccc(NC(=S)SCc2ccc(Cl)cc2)cc1Cl`, the T/C runs as follows: under setting [4], 108 % of control; under setting [5], 117 % of control; under setting [6], 116 % of control.

As for `CCOC(=O)NOP(=O)(N1CC1(C)C)N1CC1(C)C` (stereo unspecified), the T/C (dose: 62.5 mg/kg/injection, schedule: Q01DX001 (ip), vehicle: saline + alcohol) was 107 % of control; the T/C (dose: 125.0 mg/kg/injection, schedule: Q01DX001 (ip), vehicle: saline + alcohol) is 117 % of control; the T/C (dose: 250.0 mg/kg/injection, schedule: Q01DX001 (ip), vehicle: other) was 150 % of control; the T/C (dose: 250.0 mg/kg/injection, schedule: Q01DX001 (ip), vehicle: saline + alcohol) is 120 % of control; the T/C (dose: 500.0 mg/kg/injection, schedule: Q01DX001 (ip), vehicle: other) is 163 % of control; the T/C (dose: 500.0 mg/kg/injection, schedule: Q01DX001 (ip), vehicle: saline + alcohol) was 150 % of control.

`S=C(Nc1ccc(Br)cc1)SCc1ccc(Cl)cc1`: the T/C under setting [4] is 97 % of control, the T/C under setting [5] is 105 % of control and the T/C under setting [6] is 119 % of control.

With `CC(C)(C)C(=O)Oc1ccc(Br)cc1`, the T/C is 106 % of control (dose: 100.0 mg/kg/injection, schedule: Q01DX001 (ip), vehicle: Klucel (hydroxypropylcellulose) (HPC)); 106 % of control (dose: 200.0 mg/kg/injection, schedule: Q01DX001 (ip), vehicle: Klucel (hydroxypropylcellulose) (HPC)); 108 % of control (dose: 400.0 mg/kg/injection, schedule: Q01DX001 (ip), vehicle: Klucel (hydroxypropylcellulose) (HPC)).

For `COc1ccc(OC)c(/C=C(/C)[N+](=O)[O-])c1`, the T/C reads like this: (dose: 44.0 mg/kg/injection, schedule: Q04DX003 (ip), vehicle: saline with Tween-80) 119 % of control; (dose: 66.0 mg/kg/injection, schedule: Q04DX003 (ip), vehicle: saline with Tween-80) 117 % of control; (dose: 100.0 mg/kg/injection, schedule: Q04DX003 (ip), vehicle: saline with Tween-80) 123 % of control; (dose: 150.0 mg/kg/injection, schedule: Q04DX003 (ip), vehicle: saline with Tween-80) 124 % of control.

Regarding `CCOC(=O)C(C)(OCC)OCC`, the T/C was 101 % of control (dose: 25.0 mg/kg/injection, schedule: Q01DX009 (ip), vehicle: saline with Tween-80); 98 % of control under setting [1]; 98 % of control under setting [2]; 98 % of control under setting [3]; 100 % of control (dose: 400.0 mg/kg/injection, schedule: Q01DX009 (ip), vehicle: saline with Tween-80).

For `CCSC(=O)N1CCN(C(=O)SCC)CC1`, the T/C by setting is: (dose: 12.5 mg/kg/injection, schedule: Q04DX003 (ip), vehicle: saline) 100 % of control; (dose: 25.0 mg/kg/injection, schedule: Q04DX003 (ip), vehicle: saline) 100 % of control; (dose: 50.0 mg/kg/injection, schedule: Q04DX003 (ip), vehicle: saline) 101 % of control; (dose: 100.0 mg/kg/injection, schedule: Q04DX003 (ip), vehicle: saline) 108 % of control.

For `COc1cccc(CSCC(N)C(=O)O)c1` (stereo unspecified), the T/C was 104 % of control (dose: 50.0 mg/kg/injection, schedule: Q01DX005 (ip), vehicle: saline with Tween-80); 104 % of control (dose: 100.0 mg/kg/injection, schedule: Q01DX005 (ip), vehicle: saline with Tween-80); 90 % of control (dose: 200.0 mg/kg/injection, schedule: Q01DX005 (ip), vehicle: saline with Tween-80).

In the case of `C=C(C#N)C(NC(C)(C)C)c1ccccc1` (stereo unspecified), the T/C runs as follows: (dose: 12.5 mg/kg/injection, schedule: Q01DX001 (ip), vehicle: saline) 96 % of control; (dose: 25.0 mg/kg/injection, schedule: Q01DX001 (ip), vehicle: saline) 100 % of control; (dose: 50.0 mg/kg/injection, schedule: Q01DX001 (ip), vehicle: saline) 115 % of control.
